Reference: article PMC11428593 (Antibiotics, 2024)
≈ marks a conversion by molar mass, not a printed value. Where “and” joins values, the source holds several entries; their conditions need not be identical. Equal entries are not always repeated. Where two headings read alike, the source gives them in different places.

Columns and labels:
[1] = test system: S. aureus strain USA300LAC; experiment: Checkerboard assay with JC-01-074 (FIC index); format: cell-based, Staphylococcus aureus; conditions: MHB, 37 °C, 20 h, antibiotic combined with JC-01-074
Method: Therefore, we tested whether the membrane-disrupting effects of JC-01-074 could increase the sensitivity of the S. aureus strain USA300LAC to antibiotics of different classes; for instance, by facilitating their uptake into the cytoplasm. […] Antibiotic concentrations were prepared by the microbroth dilution in MHB based on their MIC values (Table 1) to obtain the final concentrations as outlined in the 96-well plate scheme for each antibiotic tested (Supplementary Figure S3). Overnight USA300LAC cultures were diluted to 5 × 10^5 CFU/mL in MHB, and the growth was recorded at 37 °C and 200 rpm for 20 h in the presence and absence of the indicated antibiotic.
FICs were calculated as the ratio of the MIC of the antimicrobial in combination with the MIC of the antimicrobial alone. Interactions were categorized as synergistic (<0.5), additive or no interaction (0.5–2), and antagonistic (>2). FICs were calculated from three biological replicates.
Following previous studies, the checkerboard assay was employed to determine whether JC-01-074 had synergistic effects in combination with members of different antibiotic classes. The indicated antibiotics tested in combination were first serially diluted two-fold in MHB on a longitudinal axis in a 96-well polystyrene plate. JC-01-074 was then serially diluted two-fold across the 96-well plate horizontal axis. The plates were inoculated with USA300LAC to a final inoculum concentration of 5 x10^5 CFU/mL (O.D.600nm = 0.0001) and incubated overnight at 37 °C for 20 h. The growth was measured at 600 nm in a Tecan 200 Infinite Pro microplate reader. The fractional inhibitory concentration was calculated as follows:FIC = MICJC-01-074 + antibiotics/[…]
The classification of interactions was based on the FIC index: interactions were categorized as synergistic (FIC ≤ 0.5), additive/no interaction (FIC 0.5–2.0), and antagonistic (FIC > 2.0).

MRSA USA300LAC [2] = experiment: MIC by broth microdilution (CLSI); format: cell-based, Staphylococcus aureus; conditions: for MIC: Staphylococcus aureus, MRSA USA300LAC, MHB, 37 °C, 16 h, read-out: MIC
Method: (§1) The MIC values of the alkyl pyridinol derivatives against the S. aureus strain ATCC 25923, MRSA strains ATCC 33591, ATCC BAA-44, and USA300LAC, as well as the P. aeruginosa strain ATCC 27853, were determined by following the CLSI guidelines for the broth microdilution antibiotic sensitivity testing protocol. In brief, the overnight cultures were diluted into Mueller Hinton Broth (MHB) to a final inoculum concentration of 5 × 10^5 CFU/mL (O.D600nm = 0.00001) and dispensed into a 96-well polystyrene plate (Alkali Scientific, Fort Lauderdale, FL, USA). Alkyl pyridine compounds were diluted into inoculated MHB to the indicated concentrations from stock solutions that would allow for DMSO concentrations below 5%, resulting in a total volume of 200 μL per well. The plates were subsequently incubated at 37 °C for 16 h at 300 rpm. The MIC values, which are defined as the lowest compound concentration that inhibited growth, were determined from three biological replicates.

MRSA ATCC 33591 = experiment: MIC by broth microdilution (CLSI); format: cell-based; conditions: Staphylococcus aureus, MHB, 37 °C, 16 h
Excerpt: (§2) To assess the impact of the nitrogen position in our newly synthesized anaephene derivates, we analyzed their antimicrobial activities against various S. aureus strains, including ATCC 25,923 and the two methicillin-resistant S. aureus (MRSA) strains ATCC 33,591 and ATCC BAA-44. […] We determined the minimum inhibitory concentrations (MIC) of each of our compounds against the different bacterial strains by broth microdilution following the CLSI guidelines. As expected, all five compounds tested were completely ineffective against the Gram-negative P. aeruginosa strain ATCC 27,853 (Table 1).
as §1

MRSA ATCC BAA-44 = experiment: MIC by broth microdilution (CLSI); format: cell-based; conditions: Staphylococcus aureus, MHB, 37 °C, 16 h
Excerpt: as §2, §1

P. aeruginosa ATCC 27853 = experiment: MIC by broth microdilution (CLSI); format: cell-based; conditions: Pseudomonas aeruginosa, ATCC27853, MHB, 37 °C, 16 h
Excerpt: as §2, §1

S. aureus ATCC 25923 = experiment: MIC by broth microdilution (CLSI); format: cell-based; conditions: Staphylococcus aureus, ATCC25923, MHB, 37 °C, 16 h
Excerpt: as §2, §1

S. aureus/MRSA strains = experiment: MIC by broth microdilution, S. aureus/MRSA strains; format: cell-based, Staphylococcus aureus; conditions: for MIC: Staphylococcus aureus, MRSA, S. aureus/MRSA strains tested, strain not singled out, read-out: MIC
Excerpt: as §2, §1

MRSA USA300LAC [3] = experiment: Minimal bactericidal concentration (MBC); format: cell-based, Staphylococcus aureus; conditions: for bactericidal or bacteriostatic effect: USA300LAC, in words
Method: In brief, 10 µL of each culture was serially diluted and plated onto prewarmed LB agar and incubated overnight at 37 °C under static conditions to observe the colony-forming units (CFUs). The concentration at which no CFUs were observed was recorded as the MBC.

[4] = test system: 3T3 mouse embryonic fibroblast cells; experiment: MTT cytotoxicity assay; format: cell-based; conditions: 3T3 cells; for IC50: Mus musculus, NIH3T3, 24 h
Method: To gauge the potential for toxicity of the new alkyl pyridinol derivates, we tested their cytotoxicity by examining the metabolic activity of 3T3 mouse embryonic fibroblast cells using the tetrazolium dye 3-(4,5-dimethylthiazol-2-yl)-2,5-diphenyltetrazolium bromide (MTT), as has been done before. The dye is reduced by NAD(P)H-dependent cellular oxidoreductases, resulting in the formation of the insoluble formazan with its purple color, which can be quantified. 3T3 cells were treated with different concentrations of the alkyl pyridinol compounds for 24 h, and the absorbance of the MTT-treated cell culture supernatant was measured at 540 nm. Absorbances were plotted against concentrations of the compound added (Supplementary Figure S2), and IC50, the concentration of a drug required for 50% metabolic inhibition, was calculated for each compound. […] However, the concentrations at which these compounds compromise 3T3 mouse embryonic fibroblast cells are well above their reported MICs (Table 2).
3T3 cells (male mouse embryonic fibroblast Flp-In cells, Thermo Fisher, Waltham, MA, USA) were cultured in D-MEM (Corning, Corning, NY, USA) supplemented with 10% Fetal Clone III (Cytiva Hyclone, Bengaluru, India) and L-Glutamine (Alfa Aesar, Haverhill, MA, USA) at 37 °C and 5% CO2. To determine the compound’s toxicity, 3T3 cells were seeded at a density of 10,000 cells/well into 96-well plates (Fisherbrand, Waltham, MA, USA) and cultured as described above. After 16 h, the culture medium was extracted and replaced by supplemented D-MEM without phenol red (Corning, Glendale, AZ, USA) containing individual compounds in the indicated concentrations. Furthermore, 1% sodium dodecyl sulfate (SDS) and 2% dimethyl sulfoxide (DMSO), equivalent to the volume of the DMSO in the highest compound concentration, were used as the cell death and vehicle control, respectively. Moreover, 16 h after compound treatment, the culture medium was extracted again and replaced by fresh supplemented D-MEM without phenol red. Subsequently, 10 µL of 5 mg/mL MTT reagent (Alfa Aesar, Haverhill, MA, USA), dissolved in DMSO, was added to each well, and the cells were incubated for 2 h at 37 °C and 5% CO2. Next, 85 µL of the culture supernatant was removed from each well, mixed with 50 µL of DMSO, and incubated in an optical grade 96-well plate (Fisherbrand, Waltham, MA, USA) in a shaking incubator at 37 °C and 250 rpm. The absorbance of the MTT-treated cell culture supernatant was measured at 540 nm in an ELx808 plate reader (Biotek, Winooski, VT, USA).

USA300LAC cells = experiment: Propidium iodide uptake assay (membrane damage); format: cell-based, Staphylococcus aureus; conditions: up to 2× MIC, 1 h exposure
Excerpt: The alkyl pyridinol derivates synthesized in this study are characterized by high lipophilicity. To determine whether and to what extent these compounds incorporate into and disrupt the phospholipid bilayer of the S. aureus cell envelope, we performed a propidium iodide (PI) uptake assay. Given the membrane-impermeable nature of PI, the fluorophore can be used to assess membrane disruption in cells by measuring its non-specific interaction with DNA, which leads to enhanced fluorescence. […] The extent of membrane damage caused by JC-01-074 occurred in a dose-dependent manner.
Figure 4 JC-01-074 causes significant membrane damage in S. aureus. Membrane damage was evaluated via propidium iodide (PI) staining. […] Treatment of USA300LAC with 2.5% DMSO, 4 µg/mL vancomycin, and 0.25% SDS were included as negative and positive controls, respectively. Cells were collected, washed, resuspended in PBS, and stained with 1 µM PI. PI fluorescence was measured (exc./em. wavelengths: 535/615 nm) and normalized to OD600nm. One-way ANOVA, Dunnett’s multiple-comparison test (* p < 0.05, **** p < 0.0001); (n = 3, ±S.D.).
The plasma membrane integrity was determined using the Propidium Iodide Uptake assay, as previously described. Briefly, the overnight cultures of USA300LAC were diluted into fresh TSB media, grown to an early log phase at 37 °C and 300 rpm, and treated with either DMSO, an alkyl pyridinol derivate, vancomycin, or SDS at the indicated concentrations for 1 h. Following two washing steps, the cells were then resuspended in phosphate-buffered saline (PBS), pH = 7.4, and subsequently stained with 1 µM propidium iodide (PI). The PI fluorescence intensity was determined at an excitation wavelength of 535 nm and an emission wavelength of 615 nm.

[5] = 24 h treatment, mean ± S.D., read-out: IC50

Compound	interaction with JC-01-074 (sum of FIC values) [1]	MIC (MRSA USA300LAC [2]) [µg/mL]	MIC (MRSA ATCC 33591) [µg/mL]	MIC (MRSA ATCC BAA-44) [µg/mL]	MIC (P. aeruginosa ATCC 27853) [µg/mL]	MIC (S. aureus ATCC 25923) [µg/mL]	IC50 [4, 5]	also measured
O=C(O)c1cn(C2CC2)c2cc(N3CCNCC3)c(F)cc2c1=O [Ciprofloxacin]	antagonistic (antagonistic (FIC > 2.0))	–	–	–	–	–	–	–
C[C@H]1c2cccc(O)c2C(=O)C2=C(O)[C@]3(O)C(=O)C(C(N)=O)=C(O)[C@@H](N(C)C)[C@@H]3[C@@H](O)[C@@H]21 [Doxycycline]	antagonistic (antagonistic (FIC > 2.0))	0.125 (≈ 0.281 µM)	–	–	–	–	–	–
CCCCCCCCCC#Cc1cc(O)cc(Br)n1 [EA-02-009]	–	32 (≈ 98.7 µM)	0.5 (≈ 1.54 µM)	1 (≈ 3.08 µM)	> 128	1 (≈ 3.08 µM)	107 ± 82.3 µM	MIC (S. aureus/MRSA strains): 0.5 to 1 µg/mL (≈ 1.54 to 3.08 µM); MBC (MRSA USA300LAC [3]; Staphylococcus aureus, MRSA USA300LAC, concentration at which no CFUs were observed): > 128 µg/mL; bactericidal or bacteriostatic effect (MRSA USA300LAC [3]): bacteriostatic; bactericidal or bacteriostatic effect (MRSA USA300LAC [3]; listed as EA-002-009): no significant killing; IC50 of single biological replicates (Figure S2) ([4]; 24 hours, one value per biological replicate, listed as EA-02-09): 16.1 µg/ml and 17.4 µg/ml and 31.4 µg/ml and 73.2 µg/ml; changes in PI intensity (USA300LAC cells): minimal changes
O=C(N[C@H](CO)[C@H](O)c1ccc([N+](=O)[O-])cc1)C(Cl)Cl [Chloramphenicol]	–	4 (≈ 12.4 µM)	–	–	–	–	–	–
CCCCCCCCCC#Cc1cc(O)cc(C#CCCCCCCCCC)n1 [JC-01-083]	–	–	> 128	> 128	> 128	> 128	78.2 µM and 31 µg/mL	antimicrobial activity against S. aureus/MRSA strains (S. aureus/MRSA strains; in words): completely inactive; IC50 of single biological replicates (Figure S2) ([4]; 24 hours, one value per biological replicate, listed as JC-01-83): 32 µg/ml and 43.5 µg/ml and 27.7 µg/ml and 20.8 µg/ml
CCCCCCCCCC#Cc1cc(O)ccn1 [EA-02-011]	–	–	32 (≈ 130 µM)	32 (≈ 130 µM)	> 128	32 (≈ 130 µM)	43.6 µM and 10.7 µg/mL	MIC (S. aureus/MRSA strains): 32 µg/mL (≈ 130 µM); IC50 of single biological replicates (Figure S2) ([4]; 24 hours, one value per biological replicate, listed as EA-02-11): 10.9 µg/ml and 8.6 µg/ml; IC50 ([4]; 24 hours, one value per biological replicate, read-out: IC50 of single biological replicates (Figure S2)): 12.7 µg/mL
CCCCCCCCCC(=O)N[C@@H](Cc1c[nH]c2ccccc12)C(=O)N[C@H](CC(N)=O)C(=O)N[C@@H](CC(=O)O)C(=O)N[C@@H]1C(=O)NCC(=O)N[C@@H](CCCN)C(=O)N[C@@H](CC(=O)O)C(=O)N[C@H](C)C(=O)N[C@@H](CC(=O)O)C(=O)NCC(=O)N[C@H](CO)C(=O)N[C@@H]([C@H](C)CC(=O)O)C(=O)N[C@@H](CC(=O)c2ccccc2N)C(=O)O[C@@H]1C [daptomycin]	–	–	–	–	–	–	–	MIC (1× MIC as used for microscopy) (MRSA USA300LAC [2]; USA300LAC, stated in figure legend): 4 µg/mL
CNC(C)C1CCC(N)C(OC2C(N)CC(N)C(OC3OCC(C)(O)C(NC)C3O)C2O)O1 (stereo not drawn) [Gentamycin]	additive (additive/no interaction (FIC 0.5–2.0))	1 (≈ 2.09 µM)	–	–	–	–	–	–
CC1(C)S[C@@H]2[C@H](NC(=O)[C@H](N)c3ccccc3)C(=O)N2[C@H]1C(=O)O [Ampicillin]	additive (additive/no interaction (FIC 0.5–2.0))	2.33 (≈ 6.67 µM)	–	–	–	–	–	–
